Data as given in PubChem BioAssay AID1963851 (Molecular Pharmacology Branch, DTP, NCI, 2024).
pIC50: −log10 of the molar value.

System: 188146-221-R-J1-PDC complex spheroid viability
Assay: Anticancer human tumor 188146-221-R-J1-PDC patient-derived colon adenocarcinoma cell line growth inhibition [POLQ]
Details: for pIC50: curve of first compound; for viability, T/C: stronger effect = lower value; active = viability on the fitted dose curve at most 10% of control; inactive = the rest
Procedure, shortened: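 Complex spheroid viability model combining PDC tumour cells with endothelial (HUVEC) and MSC stromal cells. Novobiocin, ART-558 or RP6685 were tested singly and in combination with standard and investigational anticancer drugs. Each was titrated in half-log steps from near clinical Cmax, or from 10 microM where Cmax was unknown.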

[1] = second compound 0.0316 µM, first compound 0.00316 µM
[2] = second compound 0.0316 µM, first compound 0.01 µM
[3] = second compound 0.0316 µM, first compound 0.0316 µM
[4] = second compound 0.0316 µM, first compound 0.1 µM
[5] = second compound 0.0316 µM, first compound 0.316 µM
[6] = second compound 0.0316 µM, first compound 1 µM
[7] = second compound 0.1 µM, first compound 0.00316 µM
[8] = second compound 0.1 µM, first compound 0.01 µM
[9] = second compound 0.1 µM, first compound 0.0316 µM
[10] = second compound 0.1 µM, first compound 0.1 µM
[11] = second compound 0.1 µM, first compound 0.316 µM
[12] = second compound 0.1 µM, first compound 1 µM
[13] = second compound 0.316 µM, first compound 0.00316 µM
[14] = second compound 0.316 µM, first compound 0.01 µM
[15] = second compound 0.316 µM, first compound 0.0316 µM
[16] = second compound 0.316 µM, first compound 0.1 µM
[17] = second compound 0.316 µM, first compound 0.316 µM
[18] = second compound 0.316 µM, first compound 1 µM
[19] = second compound 1 µM, first compound 0.00316 µM
[20] = second compound 1 µM, first compound 0.01 µM
[21] = second compound 1 µM, first compound 0.0316 µM
[22] = second compound 1 µM, first compound 0.1 µM
[23] = second compound 1 µM, first compound 0.316 µM
[24] = second compound 1 µM, first compound 1 µM
[25] = second compound 3.16 µM, first compound 0.00316 µM
[26] = second compound 3.16 µM, first compound 0.01 µM
[27] = second compound 3.16 µM, first compound 0.0316 µM
[28] = second compound 3.16 µM, first compound 0.1 µM
[29] = second compound 3.16 µM, first compound 0.316 µM
[30] = second compound 3.16 µM, first compound 1 µM
[31] = second compound 10 µM, first compound 0.00316 µM
[32] = second compound 10 µM, first compound 0.01 µM
[33] = second compound 10 µM, first compound 0.0316 µM
[34] = second compound 10 µM, first compound 0.1 µM
[35] = second compound 10 µM, first compound 0.316 µM
[36] = second compound 10 µM, first compound 1 µM
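Also: spheroids exposed to compounds for seven days.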
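For viability, T/C in this document: 100% = DMSO vehicle control viability.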

C=CCn1c(=O)c2cnc(Nc3ccc(N4CCN(C)CC4)cc3)nc2n1-c1cccc(C(C)(C)O)n1 + COC1C(OC(N)=O)C(O)C(Oc2ccc3c(O)c(NC(=O)c4ccc(O)c(CC=C(C)C)c4)c(=O)oc3c2C)OC1(C)C
6.03: pIC50 (second compound 0.1 µM)
inactive: viability, T/C [1] 106% | viability, T/C [2] 99.2% | viability, T/C [3] 103% | viability, T/C [4] 101% | viability, T/C [5] 98% | viability, T/C [6] 51.5% | viability, T/C [7] 111% | viability, T/C [8] 106% | viability, T/C [9] 101% | viability, T/C [10] 98% | viability, T/C [11] 91.5% | viability, T/C [12] 46.8% | viability, T/C [13] 85.1% | viability, T/C [14] 106% | viability, T/C [15] 96.5% | viability, T/C [16] 101% | viability, T/C [17] 97.6% | viability, T/C [18] 56.3% | viability, T/C [19] 108% | viability, T/C [20] 100% | viability, T/C [21] 102% | viability, T/C [22] 95.9% | viability, T/C [23] 87.7% | viability, T/C [24] 55.2% | viability, T/C [25] 102% | viability, T/C [26] 98.9% | viability, T/C [27] 108% | viability, T/C [28] 98.4% | viability, T/C [29] 98% | viability, T/C [30] 56.3% | viability, T/C [31] 109% | viability, T/C [32] 96.9% | viability, T/C [33] 100% | viability, T/C [34] 100% | viability, T/C [35] 98.1% | viability, T/C [36] 45.6%
< 6.00: pIC50 (second compound 0.0316 µM) | pIC50 (second compound 0.316 µM) | pIC50 (second compound 1 µM) | pIC50 (second compound 3.16 µM)
6.04: pIC50 (second compound 10 µM)

CC[C@@]1(O)C(=O)OCc2c1cc1n(c2=O)Cc2cc3c(CN(C)C)c(O)ccc3nc2-1 + COC1C(OC(N)=O)C(O)C(Oc2ccc3c(O)c(NC(=O)c4ccc(O)c(CC=C(C)C)c4)c(=O)oc3c2C)OC1(C)C
< 7.00: pIC50 (second compound 0.0316 µM) | pIC50 (second compound 0.1 µM) | pIC50 (second compound 0.316 µM) | pIC50 (second compound 1 µM) | pIC50 (second compound 3.16 µM) | pIC50 (second compound 10 µM)
inactive: viability, T/C (second compound 0.0316 µM, first compound 0.000316 µM) 109% | viability, T/C (second compound 0.0316 µM, first compound 0.001 µM) 98.7% | viability, T/C [1] 102% | viability, T/C [2] 101% | viability, T/C [3] 98.8% | viability, T/C [4] 68.2% | viability, T/C (second compound 0.1 µM, first compound 0.000316 µM) 97.7% | viability, T/C (second compound 0.1 µM, first compound 0.001 µM) 100% | viability, T/C [7] 89.8% | viability, T/C [8] 101% | viability, T/C [9] 87.9% | viability, T/C [10] 66.5% | viability, T/C (second compound 0.316 µM, first compound 0.000316 µM) 106% | viability, T/C (second compound 0.316 µM, first compound 0.001 µM) 95.9% | viability, T/C [13] 107% | viability, T/C [14] 98.1% | viability, T/C [15] 89.2% | viability, T/C [16] 73.9% | viability, T/C (second compound 1 µM, first compound 0.000316 µM) 111% | viability, T/C (second compound 1 µM, first compound 0.001 µM) 104% | viability, T/C [19] 109% | viability, T/C [20] 104% | viability, T/C [21] 90.1% | viability, T/C [22] 79.3% | viability, T/C (second compound 3.16 µM, first compound 0.000316 µM) 104% | viability, T/C (second compound 3.16 µM, first compound 0.001 µM) 102% | viability, T/C [25] 94.5% | viability, T/C [26] 91.6% | viability, T/C [27] 102% | viability, T/C [28] 67.3% | viability, T/C (second compound 10 µM, first compound 0.000316 µM) 96.2% | viability, T/C (second compound 10 µM, first compound 0.001 µM) 90.7% | viability, T/C [31] 99.5% | viability, T/C [32] 94.6% | viability, T/C [33] 92.1% | viability, T/C [34] 62.9%

CCc1c2c(nc3ccc(O)cc13)-c1cc3c(c(=O)n1C2)COC(=O)[C@]3(O)CC + COC1C(OC(N)=O)C(O)C(Oc2ccc3c(O)c(NC(=O)c4ccc(O)c(CC=C(C)C)c4)c(=O)oc3c2C)OC1(C)C
7.88: pIC50 (second compound 10 µM)
7.68: pIC50 (second compound 3.16 µM)
7.57: pIC50 (second compound 0.1 µM) | pIC50 (second compound 1 µM)
7.59: pIC50 (second compound 0.0316 µM)
active: viability, T/C [6] 7.12% | viability, T/C [11] 8.86% | viability, T/C [12] 6.83% | viability, T/C [29] 10.9% | viability, T/C [30] 6.97% | viability, T/C [36] 9.35%
7.62: pIC50 (second compound 0.316 µM)
inactive: viability, T/C [1] 96.6% | viability, T/C [2] 83.1% | viability, T/C [3] 41% | viability, T/C [4] 20.6% | viability, T/C [5] 10.8% | viability, T/C [7] 95.7% | viability, T/C [8] 88% | viability, T/C [9] 42.5% | viability, T/C [10] 16.8% | viability, T/C [13] 87.1% | viability, T/C [14] 88.6% | viability, T/C [15] 38% | viability, T/C [16] 14.2% | viability, T/C [17] 9.57% | viability, T/C [18] 7.85% | viability, T/C [19] 93.5% | viability, T/C [20] 91.2% | viability, T/C [21] 42.9% | viability, T/C [22] 16.6% | viability, T/C [23] 11% | viability, T/C [24] 7.07% | viability, T/C [25] 94.3% | viability, T/C [26] 79% | viability, T/C [27] 34% | viability, T/C [28] 13.3% | viability, T/C [31] 95.5% | viability, T/C [32] 56.7% | viability, T/C [33] 28.6% | viability, T/C [34] 14.9% | viability, T/C [35] 9.1%

COc1cccc(OCCCN)c1-c1cc(Nc2cnc(C#N)cn2)n[nH]1 + COC1C(OC(N)=O)C(O)C(Oc2ccc3c(O)c(NC(=O)c4ccc(O)c(CC=C(C)C)c4)c(=O)oc3c2C)OC1(C)C
7.52: pIC50 (second compound 1 µM)
7.56: pIC50 (second compound 3.16 µM)
7.65: pIC50 (second compound 10 µM)
active: viability, T/C [6] 10.6% | viability, T/C [18] 9.85%
7.54: pIC50 (second compound 0.0316 µM)
7.46: pIC50 (second compound 0.1 µM)
7.40: pIC50 (second compound 0.316 µM)
inactive: viability, T/C [1] 105% | viability, T/C [2] 77.3% | viability, T/C [3] 51.3% | viability, T/C [4] 20.1% | viability, T/C [5] 13% | viability, T/C [7] 107% | viability, T/C [8] 96.6% | viability, T/C [9] 51.9% | viability, T/C [10] 20.7% | viability, T/C [11] 12.7% | viability, T/C [12] 9.49% | viability, T/C [13] 97% | viability, T/C [14] 80.6% | viability, T/C [15] 60.2% | viability, T/C [16] 18% | viability, T/C [17] 10.6% | viability, T/C [19] 106% | viability, T/C [20] 90.1% | viability, T/C [21] 47.6% | viability, T/C [22] 21% | viability, T/C [23] 12% | viability, T/C [24] 9.09% | viability, T/C [25] 89.5% | viability, T/C [26] 79.8% | viability, T/C [27] 45.8% | viability, T/C [28] 18.4% | viability, T/C [29] 12.5% | viability, T/C [30] 9.13% | viability, T/C [31] 103% | viability, T/C [32] 83.1% | viability, T/C [33] 35.1% | viability, T/C [34] 15.2% | viability, T/C [35] 11.4% | viability, T/C [36] 9.97%
